Laboratory results as given in patent US10975068B2, “6-aminopyridin-3-yl thiazoles as modulators of RORγT” (Janssen Pharmaceutica NV, priority 2016, dated 2021).
Read-outs that look alike come from different tables or passages of the source. Marks after values point to notes of the source that are not given here.

Columns and labels:
full-length human RORγt = full-length human RORγt (Homo sapiens (Human), UniProt P51449); assay: RORγt (full-length human) reporter assay, Conditions B or C; assay type: cell-based; settings: for RORγt (FL) Reporter Assay B or C, % inhibition (value marked *): marked *: footnote not given; for IC50: read-out: RORγt (FL) Reporter Assay B or C, IC50; for inhibition at 3 µM: read-out: RORγt (FL) Reporter Assay B or C, % inhibition
Chain of full-length human RORγt (P51449 other isoform, or with tags, fused parts or gaps): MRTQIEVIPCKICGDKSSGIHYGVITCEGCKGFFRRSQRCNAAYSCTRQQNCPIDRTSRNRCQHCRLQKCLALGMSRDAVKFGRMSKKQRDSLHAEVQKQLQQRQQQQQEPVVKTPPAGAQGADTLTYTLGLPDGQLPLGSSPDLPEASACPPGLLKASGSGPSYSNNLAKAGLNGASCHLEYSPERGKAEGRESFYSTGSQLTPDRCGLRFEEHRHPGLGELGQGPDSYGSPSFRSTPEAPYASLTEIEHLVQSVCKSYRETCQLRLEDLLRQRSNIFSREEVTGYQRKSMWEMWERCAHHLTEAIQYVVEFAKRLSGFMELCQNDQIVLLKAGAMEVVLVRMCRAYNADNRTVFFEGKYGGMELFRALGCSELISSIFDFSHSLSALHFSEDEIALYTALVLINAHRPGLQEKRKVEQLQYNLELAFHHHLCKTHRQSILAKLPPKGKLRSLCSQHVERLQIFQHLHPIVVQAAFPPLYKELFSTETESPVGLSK
Method in brief: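 Readout is dual luciferase: firefly (GAL4-driven) normalized to DMSO-only and saturating-reference controls, then to CMV-Renilla. Full-length human RORγt fused to GAL4-DBD was transiently expressed in HEK293T; compound exposure ran overnight (16-20 h) starting 4-6 h after transfection, final FBS 1.3%, DMSO 0.1%.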

[1] = biological target: human RORγt ligand binding domain (RORγt LBD) (Homo sapiens (Human), UniProt P51449); assay: RORγt ThermoFluor® assay (thermal shift binding); settings: read-out: ThermoFluor® Assay, Kd
Chain of human RORγt ligand binding domain (RORγt LBD) (P51449 other isoform, or with tags, fused parts or gaps): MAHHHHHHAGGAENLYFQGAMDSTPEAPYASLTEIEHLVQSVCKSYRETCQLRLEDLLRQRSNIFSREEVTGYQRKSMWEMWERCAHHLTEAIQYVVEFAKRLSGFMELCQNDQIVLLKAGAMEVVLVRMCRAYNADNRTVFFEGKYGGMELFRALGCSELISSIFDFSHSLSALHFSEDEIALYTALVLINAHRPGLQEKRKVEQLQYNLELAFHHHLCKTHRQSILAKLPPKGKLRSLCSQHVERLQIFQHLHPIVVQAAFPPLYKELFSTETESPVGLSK
Method in brief: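 Binding was inferred from thermal stabilisation (ΔTm) of the E. coli-expressed RORγt LBD (0.065 mg/mL), monitored by 1,8-ANS (60 μM) emission at 500 nm during a 1 °C/min ramp. Buffer was Hepes 100 mM pH 7.0 with NaCl, GSH and Tween-20.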

SMILES | RORγt (FL) Reporter Assay B or C, % inhibition (value marked *) (full-length human RORγt; Conditions B or C) | IC50 (full-length human RORγt; Conditions B or C) [nM] | Kd [1] [nM] | inhibition at 3 µM (full-length human RORγt; at 3 μM compound concentration) [%] | IC50 (full-length human RORγt) [nM] | RORγt (FL) Reporter Assay B or C, % inhibition (full-length human RORγt; at 3 μM compound concentration)
C[C@H](Nc1cc(C(F)F)c(-c2sc(C(=O)NC3CS(=O)(=O)C3)nc2C(=O)N2CC(F)(F)C[C@@H]2C)cn1)C(F)(F)F [Example 192, 4-((S)-4,4-Difluoro-2-methylpyrrolidine-1-carbonyl)-5-(4-(difluoromethyl)-6-(((S)-1,1,1-trifluoropropan-2-yl)amino)pyridine-3-yl)-N-(1,1-dioxidothietan-3-yl)thiazole-2-carboxamide] | 101* % | 37 | 2.8 |  |  | 
CC1(Nc2cc(C(F)F)c(-c3sc(C(=O)N[C@H]4C[C@H](O)C4)nc3C(=O)N3C4CCC3CC4)cn2)CCC1 [Example 330, 4-((1s,4s)-7-Azabicyclo[2.2.1]heptane-7-carbonyl)-5-(4-(difluoromethyl)-6-((1-methylcyclobutyl)amino)pyridin-3-yl)-N-((1r,3R)-3-hydroxycyclobutyl)thiazole-2-carboxamide] |  |  | 4.2 | 93 | 16 | 
C[C@H](NC(=O)c1nc(C(=O)N2C3CCC2CC3)c(-c2cnc(NC3(C)CCC3)cc2C(F)F)s1)C(C)(C)O [Example 189] | 101* % | 98 | 3.6 |  |  | 
C[C@H](Nc1cc(C(F)F)c(-c2sc(C(=O)NC3CCC3O)nc2C(=O)N2CCC[C@@H]2C)cn1)C(F)(F)F (stereo partly drawn) [Example 386, 5-(4-(Difluoromethyl)-6-(((S)-1,1,1-trifluoropropan-2-yl)amino)pyridin-3-yl)-N-(trans-2-hydroxycyclobutyl)-4-((S)-2-methylpyrrolidine-1-carbonyl)thiazole-2-carboxamide] |  |  | 9.4 | 99 | 72 | 
C[C@H]1CCCN1C(=O)c1nc(C(=O)NC2(C)COC2)sc1-c1cnc(NC(C)(C)C)cc1C(F)(F)F [Example 253, 5-[6-(tert-Butylamino)-4-(trifluoromethyl)-3-pyridyl]-N-(3-methyloxetan-3-yl)-4-[(2S)-2-methylpyrrolidine-1-carbonyl]thiazole-2-carboxamide] |  |  | 1.9 | 108 | 7.7 | 

More lines, now with the values ahead:

RORγt (FL) Reporter Assay B or C, % inhibition (value marked *) (full-length human RORγt; Conditions B or C) | IC50 (full-length human RORγt; Conditions B or C) [nM] | Kd [1] [nM] | inhibition at 3 µM (full-length human RORγt; at 3 μM compound concentration) [%] | IC50 (full-length human RORγt) [nM] | RORγt (FL) Reporter Assay B or C, % inhibition (full-length human RORγt; at 3 μM compound concentration) | SMILES
 |  | 100 | 95 | 350 |  | CC[C@H](Nc1cc(C(F)F)c(-c2sc(C(=O)N3CC4(CCO4)C3)nc2C(=O)N2CCC[C@@H]2C)cn1)C(F)(F)F [Example 385, [5-[4-(Difluoromethyl)-6-[[(1S)-1-(trifluoromethyl)propyl]amino]-3-pyridyl]-2-(3-oxa-6-azaspiro[3.3]heptane-6-carbonyl)thiazol-4-yl]-[(2S)-2-methylpyrrolidin-1-yl]methanone]
 |  | 2.6 | 108 | 92 |  | CC[C@H](Nc1cc(C(F)F)c(-c2sc(C(=O)NC3CN(S(C)(=O)=O)C3)nc2C(=O)N2CCC[C@@H]2C)cn1)C(F)(F)F [Example 383, 5-[4-(Difluoromethyl)-6-[[(1S)-1-(trifluoromethyl)propyl]amino]-3-pyridyl]-4-[(2S)-2-methylpyrrolidine-1-carbonyl]-N-(1-methylsulfonylazetidin-3-yl)thiazole-2-carboxamide]
 |  | 2.4 |  | 55 | 101* % | CC[C@H](Nc1cc(C(F)F)c(-c2sc(C(=O)NC3CCC3O)nc2C(=O)N2CCC[C@@H]2C)cn1)C(F)(F)F (stereo partly drawn) [Example 379, 5-(4-(Difluoromethyl)-6-(((S)-1,1,1-trifluorobutan-2-yl)amino)pyridin-3-yl)-N-(cis-2-hydroxycyclobutyl)-4-((S)-2-methylpyrrolidine-1-carbonyl)thiazole-2-carboxamide]
83* % | 42 | 0.97 |  |  |  | CC[C@H](Nc1cc(C(F)F)c(-c2sc(C(=O)N[C@H]3CCC[C@@H]3O)nc2C(=O)N2CCC[C@@H]2C)cn1)C(F)(F)F [Example 229, 5-(4-(Difluoromethyl)-6-(((1S)-1-(trifluoromethyl)propyl)amino)-3-pyridyl)-N-((1S,2S)-2-hydroxycyclopentyl)-4-((2S)-2-methylpyrrolidine-1-carbonyl)thiazole-2-carboxamide]
